Assay results from patent US4098782A, “(His^5)-somatostatin and analogues thereof” (American Home Products Corporation, priority 1977, dated 1978).
Bridge positions count the residues as written; N and C are the ends. Peptide text beside a SMILES is read from it.

Key:
Type in all cases: in vivo
insulin = assay: Arginine-stimulated insulin secretion in Nembutal-anesthetized rats; conditions: for Insulin: albino male rats, blood 15 min after dose (5 min after arginine), control 372 ± 47
Experimental: (§1) Albino male rats were administered Nembutal intraperitoneally at a dose of 50 milligrams per kilogram. Fifteen minutes later a subcutaneous injection of the test compound or physiological saline was administered. Ten minutes later 0.5 milliliters of arginine (300 milligrams per milliliter, pH 7.2) is injected into the heart. Five minutes after receipt of the arginine the rats are decapitated and blood is collected into trasylol-EDTA. An appropriate aliquot was assayed for growth hormone, insulin and glucagon.

glucagon = assay: Arginine-stimulated glucagon secretion in Nembutal-anesthetized rats; conditions: for Glucagon: albino male rats, blood 15 min after dose (5 min after arginine), control 51 ± 4, * = p < 0.01
Experimental: as §1

growth hormone = assay: Arginine-stimulated growth hormone secretion in Nembutal-anesthetized rats; conditions: for GH: albino male rats, blood 15 min after dose (5 min after arginine), control 288 ± 30, * = p < 0.01
Experimental: as §1

| SMILES | Insulin (insulin; 1300 ug/kg subcutaneous) | effect on insulin levels (in words) (insulin; summary of rat assay) | Glucagon (glucagon; 1300 ug/kg subcutaneous) | reducing secretion of glucagon (in words) (glucagon; summary of rat assay) | GH (growth hormone; 1300 ug/kg subcutaneous) | reducing secretion of growth hormone (in words) (growth hormone; summary of rat assay) | Insulin (insulin; 200 ug/kg subcutaneous, + = p < 0.05) | Glucagon (glucagon; 200 ug/kg subcutaneous) | GH (growth hormone; 200 ug/kg subcutaneous) |
| --- | --- | --- | --- | --- | --- | --- | --- | --- | --- |
| C[C@H](N)C(=O)NCC(=O)N[C@H]1CSSC[C@@H](C(=O)O)NC(=O)[C@H](CO)NC(=O)[C@H]([C@@H](C)O)NC(=O)[C@H](Cc2ccccc2)NC(=O)[C@H]([C@@H](C)O)NC(=O)[C@H](CCCCN)NC(=O)[C@H](Cc2c[nH]c3ccccc23)NC(=O)[C@H](Cc2ccccc2)NC(=O)[C@H](Cc2ccccc2)NC(=O)[C@H](Cc2c[nH]cn2)NC(=O)[C@H](CCCCN)NC1=O [(His^5)SRIF, L-Alanyl-glycyl-L-cysteinyl-lysyl-L-histidyl-L-phenylalanyl-L-phenylalanyl-L-tryptophyl-L-lysyl-L-threonyl-L-phenylalanyl-L-threonyl-L-seryl-L-cysteine(3-14 cyclic)disulfide] (H-AGCKHFFWKTFTSC-OH; disulfide 3-14) | 390 ± 94 μU/ml | without materially affecting insulin levels | 31 ± 6 pg/mL | effective agent for reducing secretion of growth hormone and glucagon | 83 ± 15 ng/mL | effective agent for reducing secretion of growth hormone | – | – | – |
| C[C@H](N)C(=O)NCC(=O)N[C@H]1CSSC[C@@H](C(=O)O)NC(=O)[C@H](CO)NC(=O)[C@H]([C@@H](C)O)NC(=O)[C@H](Cc2ccccc2)NC(=O)[C@H]([C@@H](C)O)NC(=O)[C@H](CCCCN)NC(=O)[C@H](Cc2c[nH]c3ccccc23)NC(=O)[C@H](Cc2ccccc2)NC(=O)[C@H](Cc2ccccc2)NC(=O)[C@H](CC(N)=O)NC(=O)[C@H](CCCCN)NC1=O [SRIF, reference compound] | – | – | – | – | – | – | 232 ± 23 μU/ml | 26 ± 6 pg/mL | 66 ± 11 ng/mL |
